Test results published in patent publication US10189842B2 (Agency for Science, Technology and Research, priority 2013, dated 2019).

System: HEK293-STF3A cells
Experiment: STF3A assay (luciferase reporter)
Type: cell-based, Human
Details: Homo sapiens, 24 h, 1 day of treatment
Text: HEK293-STF cell line was modified from Human embryonic kidney cell line HEK293 transfected with the STF reporter. HEK293-STF3A cell line was further modified from HEK293-STF cell line to express Wnt3A. This cell line was used to identify compounds that regulate either early or late signaling components of the Wnt pathway. These two cell lines were obtained from David Virshup's laboratory, Duke-NUS. L-Wnt3A (ATCC, #CRL-2647) cell line was used for providing Wnt3A conditioned media. The three cell lines were grown in DMEM with 10% FBS incubated in 37° C. with 5% CO2.
2×10^4 HEK293-STF3A cells in 75 μl culture media were seeded in each well of white 96 well plates (Greiner #655098) and incubated overnight at 37° C. 25 μl serially diluted compound was added to the cells to give final concentration of 50 μM to 1.5 nM. After 1 day of treatment, 100 μl of Steady-Glo Luciferase Assay reagent (#E2520, Promega) was added to each well and incubated for 10 minutes at room temperature. Luminescence was measured using Tecan Safire2 plate reader.

SMILES | IC50 [nM]
Cc1cc2n(n1)CCCN2C(=O)CCC(=O)Nc1nc(-c2cccc(Cl)c2)no1 [Compound 22, N-(3-(3-chlorophenyl)-1,2,4-oxadiazol-5-yl)-4-(2-methyl-6,7-dihydropyrazolo[1,5-a]pyrimidin-4(5H)-yl)-4-oxobutanamide] | > 10000
Cc1cc2n(n1)CCCN2C(=O)CCC(=O)Nc1ccc(N2CCNCC2)cc1 [Compound 77, 4-(2-methyl-6,7-dihydropyrazolo[1,5-a]pyrimidin-4(5H)-yl)-4-oxo-N-(4-(piperazin-1-yl)phenyl)butanamide] | > 10000
Cc1cc2n(n1)CCCN2C(=O)CCC(=O)Nc1cc(-c2cccc(Cl)c2)on1 [Compound 23, N-[5-(3-chlorophenyl)-1,2-oxazol-3-yl]-4-{2-methyl-5H,6H,7H-pyrazolo[1,5-a]pyrimidin-4-yl}-4-oxobutanamide] | < 1000
Cc1cc2n(n1)CCCN2C(=O)CC(C)C(=O)Nc1ccc(-c2cccnc2)cn1 (stereo not shown) [Compound 147, N-([3,3′-bipyridin]-6-yl)-2-methyl-4-(2-methyl-6,7-dihydropyrazolo[1,5-a]pyrimidin-4(5H)-yl)-4-oxobutanamide] | < 100
Cc1cc2n(n1)CCCN2C(=O)CCC(=O)Nc1cc(-c2cccnc2)no1 [Compound 19, 4-(2-methyl-6,7-dihydropyrazolo[1,5-a]pyrimidin-4(5H)-yl)-4-oxo-N-(3-(pyridin-3-yl)isoxazol-5-yl)butanamide] | > 10000
Cc1ccnc(-c2ccc(NC(=O)CCC(=O)N3CCCn4nc(C)cc43)nc2)c1 [Compound 148, N-(4-methyl-2,3′-bipyridin-6′-yl)-4-(2-methyl-6,7-dihydropyrazolo[1,5-a]pyrimidin-4(5H)-yl)-4-oxobutanamide] | < 100
Cc1cc2n(n1)CCCN2C(=O)CCC(=O)Nc1cc(-c2ccccc2C)no1 [Compound 12, 4-(2-methyl-6,7-dihydropyrazolo[1,5-a]pyrimidin-4(5H)-yl)-4-oxo-N-(3-(o-tolyl)isoxazol-5-yl)butanamide] | < 100
COC(=O)c1cc2n(n1)CCCN2C(=O)CCC(=O)Nc1cc(-c2cccc(Cl)c2)no1 [Compound 136, methyl 4-(4-(3-(3-chlorophenyl)isoxazol-5-ylamino)-4-oxobutanoyl)-4,5,6,7-tetrahydropyrazolo[1,5-a]pyrimidine-2-carboxylate] | > 10000
Cc1cc2n(n1)CCCN2C(=O)CCC(=O)Nc1ccc(-c2cccc(F)c2)cc1 [Compound 65, N-(3′-fluoro-[1,1′-biphenyl]-4-yl)-4-(2-methyl-6,7-dihydropyrazolo[1,5-a]pyrimidin-4(5H)-yl)-4-oxobutanamide] | < 100
Cc1cc2n(n1)CC(C)CN2C(=O)CCC(=O)Nc1ccc(-c2ccc(F)cn2)cn1 (stereo not shown) [Compound 164, 4-(2,6-dimethyl-6,7-dihydropyrazolo[1,5-a]pyrimidin-4(5H)-yl)-N-(5-fluoro-[2,3′-bipyridin]-6′-yl)-4-oxobutanamide] | < 1000
Cc1cc2n(n1)CCCN2C(=O)CCC(=O)Nc1ccc(-c2cncc(C(F)(F)F)c2)cn1 [Compound 118, 4-(2-methyl-6,7-dihydropyrazolo[1,5-a]pyrimidin-4(5H)-yl)-4-oxo-N-(5′-(trifluoromethyl)-[3,3′-bipyridin]-6-yl)butanamide] | < 100
Cc1cc2n(n1)CCCN2C(=O)CCC(=O)Nc1cc(C)c(-c2cccnc2)nn1 [Compound 106, 4-(2-methyl-6,7-dihydropyrazolo[1,5-a]pyrimidin-4(5H)-yl)-N-(5-methyl-6-(pyridin-3-yl)pyridazin-3-yl)-4-oxobutanamide] | < 5000
Cc1cncc(-c2cnc(NC(=O)CCC(=O)N3CCCn4nc(C)cc43)cn2)c1 [Compound 124, 4-(2-methyl-6,7-dihydropyrazolo[1,5-a]pyrimidin-4(5H)-yl)-N-(5-(5-methylpyridin-3-yl)pyrazin-2-yl)-4-oxobutanamide] | < 100
Cc1cc2n(n1)CCCN2C(=O)CCC(=O)Nc1ccc(N2CCCC2)cc1 [Compound 31, 4-(2-methyl-6,7-dihydropyrazolo[1,5-a]pyrimidin-4(5H)-yl)-4-oxo-N-(4-(pyrrolidin-1-yl)phenyl)butanamide] | < 5000
CCNC(=O)N1CCN(c2ccc(NC(=O)CCC(=O)N3CCCn4nc(C)cc43)nc2)CC1 [Compound 79, N-ethyl-4-(6-(4-(2-methyl-6,7-dihydropyrazolo[1,5-a]pyrimidin-4(5H)-yl)-4-oxobutanamido)pyridin-3-yl)piperazine-1-carboxamide] | < 5000
Cc1cc2n(n1)CCCN2C(=O)CCC(=O)Nc1ccc(-c2cnccn2)cn1 [Compound 50, 4-(2-methyl-6,7-dihydropyrazolo[1,5-a]pyrimidin-4(5H)-yl)-4-oxo-N-(5-(pyrazin-2-yl)pyridin-2-yl)butanamide] | < 100
Cc1cc2n(n1)CCCN2C(=O)CCC(=O)Nc1ccc(-c2cccc(N3CCOCC3)c2)cc1 [Compound 73, 4-(2-methyl-6,7-dihydropyrazolo[1,5-a]pyrimidin-4(5H)-yl)-N-(3′-morpholinobiphenyl-4-yl)-4-oxobutanamide] | < 5000
Cc1cc2n(n1)CCCN2C(=O)CCC(=O)Nc1cc(-c2ccccc2)no1 [Compound 2, 4-(2-methyl-6,7-dihydropyrazolo[1,5-a]pyrimidin-4(5H)-yl)-4-oxo-N-(3-phenylisoxazol-5-yl)butanamide] | < 1000
Cc1cc2n(n1)CCCN2C(=O)CC(C)C(=O)Nc1cc(-c2cccc(Cl)c2)no1 (stereo not shown) [Compound 159, N-(3-(3-chlorophenyl)isoxazol-5-yl)-2-methyl-4-(2-methyl-6,7-dihydropyrazolo[1,5-a]pyrimidin-4(5H)-yl)-4-oxobutanamide] | < 5000
Cc1cc2n(n1)C[C@H](C)CN2C(=O)CCC(=O)Nc1ccc(-c2cccnc2)cn1 [Compound 170, N-(3,3′-bipyridin-6-yl)-4-(2,6-dimethyl-6,7-dihydropyrazolo[1,5-a]pyrimidin-4(5H)-yl)-4-oxobutanamide] | < 100
Cc1cc2n(n1)CCCN2C(=O)CCC(=O)Nc1cc(-c2cccc(Br)c2)no1 [Compound 9, N-[3-(3-bromophenyl)-1,2-oxazol-5-yl]-4-{2-methyl-5H,6H,7H-pyrazolo[1,5-a]pyrimidin-4-yl}-4-oxobutanamide] | < 1000
Cc1cc2n(n1)CCCN2C(=O)CCC(=O)Nc1ccc(-c2cncc(Cl)c2)nc1 [Compound 108, N-(5′-chloro-[2,3′-bipyridin]-5-yl)-4-(2-methyl-6,7-dihydropyrazolo[1,5-a]pyrimidin-4(5H)-yl)-4-oxobutanamide] | < 100
Cc1cncc(-c2ccc(NC(=O)C(C)CC(=O)N3CCCn4nc(C)cc43)nc2)n1 (stereo not shown) [Compound 151, 2-methyl-4-(2-methyl-6,7-dihydropyrazolo[1,5-a]pyrimidin-4(5H)-yl)-N-(5-(6-methylpyrazin-2-yl)pyridin-2-yl)-4-oxobutanamide] | < 100
COc1ccccc1-c1ccc(NC(=O)CCC(=O)N2CCCn3nc(C)cc32)cc1 [Compound 61, N-(2′-methoxy-[1,1′-biphenyl]-4-yl)-4-(2-methyl-6,7-dihydropyrazolo[1,5-a]pyrimidin-4(5H)-yl)-4-oxobutanamide] | > 10000
Cc1cc2n(n1)CCCN2C(=O)CCC(=O)Nc1cc(-c2cccc(Cl)c2)no1 [Compound 3, N-(3-(3-chlorophenyl)isoxazol-5-yl)-4-(2-methyl-6,7-dihydropyrazolo[1,5-a]pyrimidin-4(5H)-yl)-4-oxobutanamide] | < 100
